# Measurements as given in patent US20020173538A1, “Method for sensitizing cancer cells to cancer therapies with a mevalonate-reducing compound” (priority 2000, published 2002).
# Where two headings read alike, the source gives them in different places. Marks after values point to notes of the source that are not given here.
# Assays:
# Hep 3B/T2 cells [1] = test: Tumor growth of Hep 3B/T2 cells in nude mice; type: in vivo, BALB/c-nu/nu nude mice
# Text: The descriptive statistics were summarized as mean±STD. For statistical analysis, Student's t-test was used to determine significance of mean differences between groups.
# Hep 3B/T2 cells [2] = test: Tumor growth of Hep 3B/T2 cells in nude mice; type: in vivo, BALB/c-nu/nu nude mice; remark: listed apart in the source
# Hep 3B cells [3] = test: Cell cycle determination by flow cytometry, Hep 3B; type: cell-based, human; settings: cell line not given
# Hep 3B cells [4] = test: MTT cell viability assay, Hep 3B cells (serum-free DMEM)
# Text: Human hepatoma cell lines Hep G2 and Hep 3 were chosen as the in vitro models of hepatocytes and hepatoma, respectively.
# [5] = LOV 10 μM 48 hr, then LOV 10 μM without MVA another 24 hr
# [6] = LOV 10 μM 48 hr, then LOV 10 μM without MVA another 48 hr
# [7] = LOV 10 μM 48 hr, then LOV 10 μM without MVA another 72 hr
smiles,measurement,setting,value
"CC[C@H](C)C(=O)O[C@H]1C[C@@H](C)C=C2C=C[C@H](C)[C@H](CC[C@@H]3C[C@@H](O)CC(=O)O3)[C@H]21 [Lovastatin, lovastatin]",Tumor size (1 × w^2 × 0.52 cm^3) Day 28,"Hep 3B/T2 cells [1]; Day 28 after inoculation of 1 × 10^7 Hep 3B/T2 cells in male BALB/c-nu/nu nude mice, p.o. lovastatin 37.5 mg/kg/day (days 28-34, 49-55) and/or i.p. taxol 120 μg/kg/2 day (days 36, 38, 40, 57, 59, 61), mean ± SEM",0.170 cm^3
same,Tumor size,"Hep 3B/T2 cells [1]; after two cycles: lovastatin fed 7 days, then paclitaxel injected 3 days (FIG. 38), mean±STD",1.26±1.82 cm^3
same,percentage of inhibition of tumor size,"Hep 3B/T2 cells [2]; Cycle 1 (Day 42), LOV 37.5 mg/kg/day p.o. days 28-34 and 49-55 and/or taxol 120 μg/kg/2 day i.p. day 36, 38, 40, 57, 59, 61",(−43.6%
same,Tumor size,"Hep 3B/T2 cells [2]; Day 8, LOV 75 mg/kg/day p.o. days 8-14 and/or taxol 120 μg/kg/day i.p. days 15-19, n = 3",0.111 cm^3
same,Tumor size,"Hep 3B/T2 cells [2]; Day 11, LOV 75 mg/kg/day p.o. days 8-14 and/or taxol 120 μg/kg/day i.p. days 15-19, n = 3",0.048 cm^3
same,Tumor size,"Hep 3B/T2 cells [2]; Day 17, LOV 75 mg/kg/day p.o. days 8-14 and/or taxol 120 μg/kg/day i.p. days 15-19, n = 3",0.050 cm^3
same,Tumor size,"Hep 3B/T2 cells [2]; Day 26, LOV 75 mg/kg/day p.o. days 8-14 and/or taxol 120 μg/kg/day i.p. days 15-19, n = 3",0.121 cm^3
same,Tumor size,"Hep 3B/T2 cells [2]; Day 29, LOV 75 mg/kg/day p.o. days 8-14 and/or taxol 120 μg/kg/day i.p. days 15-19, n = 3",0.154 cm^3
same,Tumor size (1 × w^2 × 0.52 cm^3) Day 35,"Hep 3B/T2 cells [2]; Day 35 after inoculation, p.o. lovastatin 37.5 mg/kg/day (days 28-34, 49-55) and/or i.p. taxol 120 μg/kg/2 day (days 36, 38, 40, 57, 59, 61), mean ± SEM",0.200 cm^3
same,Tumor size (1 × w^2 × 0.52 cm^3) Day 38,"Hep 3B/T2 cells [2]; Day 38 after inoculation, p.o. lovastatin 37.5 mg/kg/day (days 28-34, 49-55) and/or i.p. taxol 120 μg/kg/2 day (days 36, 38, 40, 57, 59, 61), mean ± SEM",0.301 cm^3
same,Tumor size (1 × w^2 × 0.52 cm^3) Day 42,"Hep 3B/T2 cells [2]; Day 42 after inoculation, p.o. lovastatin 37.5 mg/kg/day (days 28-34, 49-55) and/or i.p. taxol 120 μg/kg/2 day (days 36, 38, 40, 57, 59, 61), mean ± SEM",0.533 cm^3
same,Tumor size (1 × w^2 × 0.52 cm^3) Day 49,"Hep 3B/T2 cells [2]; Day 49 after inoculation, p.o. lovastatin 37.5 mg/kg/day (days 28-34, 49-55) and/or i.p. taxol 120 μg/kg/2 day (days 36, 38, 40, 57, 59, 61), mean ± SEM",0.665 cm^3
same,Tumor size (1 × w^2 × 0.52 cm^3) Day 56,"Hep 3B/T2 cells [2]; Day 56 after inoculation, p.o. lovastatin 37.5 mg/kg/day (days 28-34, 49-55) and/or i.p. taxol 120 μg/kg/2 day (days 36, 38, 40, 57, 59, 61), mean ± SEM",0.995 cm^3
same,Tumor size (1 × w^2 × 0.52 cm^3) Day 63,"Hep 3B/T2 cells [2]; Day 63 after inoculation, p.o. lovastatin 37.5 mg/kg/day (days 28-34, 49-55) and/or i.p. taxol 120 μg/kg/2 day (days 36, 38, 40, 57, 59, 61), mean ± SEM",1.263 cm^3
same,Tumor size,"Hep 3B/T2 cells [2]; end of one cycle of treatment, n=6 (FIG. 41)",2.24±2.38 cm^3
same,cell cycle arrest stage,Hep 3B cells [3],G0/G1 arrest
same,IC50,"Hep 3B cells [4]; Homo sapiens, Hep3B, 48 h, read-out: IC50 (cell viability), 48 hr, Table 3",62.3 ± 7.1 µM
same,IC50,"Hep 3B cells [4]; Homo sapiens, Hep3B, 48 h, read-out: IC50 (cell viability), 48 hr, Table 4",63.6 µM
same,IC50,"Hep 3B cells [4]; Homo sapiens, Hep3B, 48 h, read-out: IC50 of lovastatin (cell viability), 48 hr treatment",63.6 ± 7.1 µM
same,viability at 1 µM,"Hep 3B cells [4]; Homo sapiens, Hep3B, 72 h, read-out: Cell viability, lovastatin 1 μM, 72 hr",84.1 ± 4.5%
same,viability at 2 µM,"Hep 3B cells [4]; Homo sapiens, Hep3B, 72 h, read-out: Cell viability, lovastatin 2 μM, 72 hr",71.4 ± 3.8%
same,viability at 5 µM,"Hep 3B cells [4]; Homo sapiens, Hep3B, 72 h, read-out: Cell viability, lovastatin 5 μM alone, 72 hr, Table 23",60.7 ± 2.4%
same,viability at 5 µM,"Hep 3B cells [4]; Homo sapiens, Hep3B, 72 h, read-out: Cell viability, lovastatin 5 μM, 72 hr",58.8 ± 1.8%
same,viability at 10 µM,"Hep 3B cells [4]; Homo sapiens, Hep3B, 72 h, read-out: Cell viability, lovastatin 10 μM alone, 72 hr, Table 23",48.5 ± 2.5%
same,viability at 10 µM,"Hep 3B cells [4]; Homo sapiens, Hep3B, 72 h, read-out: Cell viability, lovastatin 10 μM, 72 hr",41.4 ± 1.5%
same,viability at 50 µM,"Hep 3B cells [4]; Homo sapiens, Hep3B, 72 h, read-out: Cell viability, lovastatin 50 μM, 72 hr",15.2 ± 1.8%
same,IC50,"Hep 3B cells [4]; Homo sapiens, Hep3B, 72 h, read-out: IC50 (cell viability), 72 hr, Table 3",6.8 ± 1.3 µM
same,IC50,"Hep 3B cells [4]; Homo sapiens, Hep3B, 72 h, read-out: IC50 (cell viability), 72 hr, Table 4",6.8 µM
same,IC50,"Hep 3B cells [4]; Homo sapiens, Hep3B, 72 h, read-out: IC50 of lovastatin (cell viability), 72 hr treatment",6.8 ± 1.3 µM
same,viability at 10 µM,"Hep 3B cells [4]; Homo sapiens, Hep3B, 96 h, read-out: Cell viability, lovastatin 10 μM alone, 96 hr, Table 10",29.8 ± 1.2%
same,viability at 10 µM,"Hep 3B cells [4]; Homo sapiens, Hep3B, 96 h, read-out: Cell viability, lovastatin 10 μM alone, 96 hr, Table 21",27.5 ± 8.2%
same,viability at 10 µM,"Hep 3B cells [4]; Homo sapiens, Hep3B, 96 h, read-out: Cell viability, lovastatin 10 μM alone, 96 hr, Table 25",28.6 ± 1.7%
same,IC50,"Hep 3B cells [4]; Homo sapiens, Hep3B, 96 h, read-out: IC50 (cell viability), 96 hr",5.9 µM
same,IC50,"Hep 3B cells [4]; Homo sapiens, Hep3B, 120 h, read-out: IC50 (cell viability), 120 hr",1.3 µM
same,Cell viability,"Hep 3B cells [4]; LOV 1 μM, 48 hr",90.2 ± 0.3^b % of control
same,Cell viability,"Hep 3B cells [4]; LOV 2 μM, 48 hr",86.1 ± 2.0^bc % of control
same,Cell viability,"Hep 3B cells [4]; LOV 5 μM, 48 hr",78.6 ± 4.7^cd % of control
same,Cell viability,"Hep 3B cells [4]; LOV 5 μM, 48 hr, Table 4",78.6 ± 4.7^b % of control
same,Cell viability,"Hep 3B cells [4]; LOV 5 μM, 96 hr",56.4 ± 5.1^c % of control
same,Cell viability,"Hep 3B cells [4]; LOV 5 μM, 120 hr",20.3 ± 3.6^d % of control
same,Cell viability,Hep 3B cells [4]; [5],52.6 ± 2.6^b % of control
same,Cell viability (cell number),Hep 3B cells [4]; [5],5.3 ± 0.1^b 1 × 10^3 cells
same,Cell viability,Hep 3B cells [4]; [6],7.3 ± 0.5^b % of control
same,Cell viability (cell number),Hep 3B cells [4]; [6],1.0 ± 0.1^b 1 × 10^3 cells
same,Cell viability,Hep 3B cells [4]; [7],3.2 ± 1.8^b % of control
same,Cell viability (cell number),Hep 3B cells [4]; [7],0.6 ± 0.5^b 1 × 10^3 cells
same,Cell viability,"Hep 3B cells [4]; LOV 10 μM, 48 hr",66.4 ± 0.8^de % of control
same,Cell viability,"Hep 3B cells [4]; LOV 10 μM, 48 hr, Table 4",66.4 ± 0.8^b % of control
same,Cell viability,"Hep 3B cells [4]; LOV 10 μM, 96 hr",31.7 ± 2.7^d % of control
same,Cell viability,"Hep 3B cells [4]; LOV 10 μM, 120 hr",6.9 ± 1.3^e % of control
same,Cell viability,"Hep 3B cells [4]; LOV 20 μM, 48 hr",55.7 ± 6.6^ef % of control
same,Cell viability,"Hep 3B cells [4]; LOV 50 μM, 48 hr",52.2 ± 1.9^f % of control
same,Cell viability,"Hep 3B cells [4]; lovastatin 5 μM 48 hr, then no CAPE 48 hr",64.3 ± 5.5 % of control
same,Cell viability,"Hep 3B cells [4]; lovastatin 5 μM 48 hr, then no taxol 48 hr",49.8 ± 7.8 % of control
same,Cell viability,"Hep 3B cells [4]; lovastatin 5 μM 72 hr, then no taxol 48 hr",27.7 ± 2.0 % of control
same,Cell viability,"Hep 3B cells [4]; lovastatin 5 μM 72 hr, then no taxol 72 hr",13.0 ± 3.0 % of control
same,Cell viability,"Hep 3B cells [4]; lovastatin 10 μM 48 hr, then no CAO 48 hr",47.9 ± 6.1^de % of control
same,Cell viability,"Hep 3B cells [4]; lovastatin 10 μM 48 hr, then no CAPE 48 hr",59.3 ± 4.5^d % of control
same,Cell viability,"Hep 3B cells [4]; lovastatin 10 μM 48 hr, then no GL-M1 48 hr",53.6 ± 8.2^c % of control
same,Cell viability,"Hep 3B cells [4]; lovastatin 10 μM 48 hr, then no taxol 48 hr",45.7 ± 3.1^d % of control
same,Cell viability,"Hep 3B cells [4]; lovastatin 10 μM 72 hr, then no taxol 48 hr",20.4 ± 7.0^c % of control
same,Cell viability,"Hep 3B cells [4]; lovastatin 10 μM 72 hr, then no taxol 72 hr",14.7 ± 3.6^d % of control
same,Cell viability,"Hep 3B cells [4]; lovastatin 50 μM 48 hr, then no taxol 48 hr",2.9 ± 4.1 % of control
